Values quoted from earlier work in US7358226B2, “Ultrasonic concentration of drug delivery capsules” (The Regents of the University of California, priority 2003, dated 2008).
One block for each molecule: values may come before it.

Columns and labels:
[1] = target: T1, P-gp (Mus musculus, UniProt P21447)
T1 construct: host or cells: mouse brain in vivo (endogenous protein)

[2] = target: T2, P-glycoprotein (Mus musculus, UniProt P21447)
T2 construct: host or cells: mouse brain in vivo (endogenous protein)
T2 sequence (P21447 whole entry): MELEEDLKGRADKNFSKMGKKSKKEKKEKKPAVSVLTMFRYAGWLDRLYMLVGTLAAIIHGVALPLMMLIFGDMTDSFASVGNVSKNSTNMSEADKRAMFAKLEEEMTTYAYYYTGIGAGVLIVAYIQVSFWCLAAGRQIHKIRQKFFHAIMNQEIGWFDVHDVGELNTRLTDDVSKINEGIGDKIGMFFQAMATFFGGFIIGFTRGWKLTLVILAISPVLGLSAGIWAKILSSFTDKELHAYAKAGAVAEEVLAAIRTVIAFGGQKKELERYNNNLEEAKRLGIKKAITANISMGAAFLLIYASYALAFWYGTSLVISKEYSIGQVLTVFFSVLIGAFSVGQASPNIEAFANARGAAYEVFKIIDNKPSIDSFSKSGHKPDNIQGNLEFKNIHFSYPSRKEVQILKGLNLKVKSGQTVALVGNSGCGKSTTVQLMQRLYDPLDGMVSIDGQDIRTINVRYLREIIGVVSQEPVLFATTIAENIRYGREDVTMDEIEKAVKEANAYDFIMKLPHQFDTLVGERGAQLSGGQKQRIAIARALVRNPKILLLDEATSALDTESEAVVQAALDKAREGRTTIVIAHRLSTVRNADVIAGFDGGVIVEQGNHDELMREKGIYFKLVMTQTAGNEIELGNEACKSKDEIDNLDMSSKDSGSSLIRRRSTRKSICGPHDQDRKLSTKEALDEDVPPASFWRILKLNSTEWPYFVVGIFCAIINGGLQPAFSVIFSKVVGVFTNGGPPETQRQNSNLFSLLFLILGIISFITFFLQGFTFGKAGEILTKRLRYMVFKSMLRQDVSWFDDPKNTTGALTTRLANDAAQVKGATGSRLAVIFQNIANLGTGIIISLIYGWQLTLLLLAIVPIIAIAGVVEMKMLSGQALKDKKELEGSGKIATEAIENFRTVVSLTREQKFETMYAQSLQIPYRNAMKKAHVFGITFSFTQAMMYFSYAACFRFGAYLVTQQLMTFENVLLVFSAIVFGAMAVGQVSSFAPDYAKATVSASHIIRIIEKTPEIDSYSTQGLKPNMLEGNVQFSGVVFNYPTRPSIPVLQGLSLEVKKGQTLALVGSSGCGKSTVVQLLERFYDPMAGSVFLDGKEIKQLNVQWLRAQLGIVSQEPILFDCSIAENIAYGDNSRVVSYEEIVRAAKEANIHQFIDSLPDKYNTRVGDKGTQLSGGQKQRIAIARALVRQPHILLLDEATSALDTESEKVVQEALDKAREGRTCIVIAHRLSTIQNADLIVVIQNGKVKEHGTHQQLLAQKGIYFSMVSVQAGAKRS

[3] = system: tumor; conditions: paclitaxel alone

T1 sequence (P21447 whole entry): as above

SMILES: CC(=O)O[C@H]1C(=O)[C@@]2(C)[C@H]([C@H](OC(=O)c3ccccc3)[C@]3(O)C[C@H](OC(=O)[C@H](O)[C@@H](NC(=O)c4ccc([18F])cc4)c4ccccc4)C(C)=C1C3(C)C)[C@]1(OC(C)=O)CO[C@@H]1C[C@@H]2O [F18-fluoropaclitaxel]
increase of F18-fluoropaclitaxel uptake in the brain ([1]; P-gp knockout mice relative to wildtype controls): 1400%
clearance ([1]; mouse, in vivo): rapid clearance
tissue uptake ([1]; mouse, in vivo): high uptake in many tissues

brain concentrations of paclitaxel ([2]; Valspodar co-administered with paclitaxel): significantly increase
SMILES: C/C=C/C[C@@H](C)C(=O)[C@H]1C(=O)N[C@@H](C(C)C)C(=O)N(C)CC(=O)N(C)[C@@H](CC(C)C)C(=O)N[C@@H](C(C)C)C(=O)N(C)[C@@H](CC(C)C)C(=O)N[C@@H](C)C(=O)N[C@H](C)C(=O)N(C)[C@@H](CC(C)C)C(=O)N(C)[C@@H](CC(C)C)C(=O)N(C)[C@@H](C(C)C)C(=O)N1C [Valspodar]

increase of uptake of F18-fluoropaclitaxel ([1]; preadministration of XR9576, increase was not significant): 20%
SMILES: COc1cc2c(cc1OC)CN(CCc1ccc(NC(=O)c3cc(OC)c(OC)cc3NC(=O)c3cnc4ccccc4c3)cc1)CC2 [XR9576]

penetration of paclitaxel into the brain ([2]; P-glycoprotein knockout mice): markedly increased
SMILES: CC(=O)O[C@H]1C(=O)[C@@]2(C)[C@H]([C@H](OC(=O)c3ccccc3)[C@]3(O)C[C@H](OC(=O)[C@H](O)[C@@H](NC(=O)c4ccccc4)c4ccccc4)C(C)=C1C3(C)C)[C@]1(OC(C)=O)CO[C@@H]1C[C@@H]2O [paclitaxel, Paclitaxel]
effect on tumor volume [3]: did not affect tumor volume
